In patent publication US20100107281A1, “PESTICIDAL COMBINATIONS” (priority 2006, published 2010):

System: Soybean Cyst Nematode (Heterodera Glycines)
Test: Soybean cyst nematode reproduction on seed-treated soybean plants in cone-tainers, eggs counted 30 days after inoculation
Type: in vivo
Settings: soybean seed treatment
Description: The expected percentage of disease control to be expected, E, for a given combination of two active ingredients can be calculated as follows (see COLBY, S. R. “Calculating synergistic and antagonistic response of herbicide combinations”. Weeds 15, pages 20-22; 1967):
wherein: X=% disease control in the case of treatment with active ingredient (A) at a defined application rate, in comparison with untreated control (=0%). Y=% disease control in the case of treatment with active ingredient (B) at a defined application rate, in comparison with untreated control. E=expected percentage of disease control (% disease control in comparison with untreated control) after treatment with active ingredient (A) and active ingredient (B) at a defined application rate. If the observed percentage of disease control O is greater than the expected value E, there is a synergistic effect.
Soybeans were planted into “cone-tainers” (3.8 cm cell diameter; 14 cm cell depth; the Ray Leach “Cone-tainer” Single Cell System consists of individual cells that can be arranged within a tray and is available from Stuewe and Sons Incorporated) in 70% sand 30% clay loam soil mix (one soybean seed per cone-tainer). The cone-tainers contained a 10 cm by 10 cm piece of cheesecloth at the bottom to prevent the soil coming out of the bottom. The soil mix was autoclaved for 60 minutes prior to use. Extra cone-tainers were planted which allowed similar size soybean plants to be selected and placed into a randomized complete block design with 3 replications of each treatment. The cone-tainers were placed into a growth chamber set at 27° C. and 14 hour day light periods. The air temperature in the growth chamber was monitored in 15 minutes intervals using a watchdog data collector. […] The water source was supplemented with fertilizer to promote plant growth.
Soil was collected from a field with “HG type” 2.5.7 (The “HG type” test is a greenhouse test that provides information on how well a soybean cyst nematode “Heterodera glycines, HG” population can reproduce in a particular soil). The soil was added to water and poured over a 25 mesh sieve over a 60 mesh sieve to collect the cysts. The soil solution collected on the 60 mesh sieve was then placed onto a 120 mesh sieve over 500 mesh sieve. […]
The soybean plants were inoculated with 6,000 soybean cyst nematode eggs 7 days after the planting of the soybeans into the cone-tainers. […] The air temperature in the growth chamber was monitored in 15 minutes intervals using a watchdog data collector. […]
The plants were removed from the growth chamber 30 days after inoculation to assess the nematode reproduction factor. […] The total number of soybean cyst nematode eggs present in each sample was determined. […]

Row | Molecule | Observed Rf (nematode reproduction factor) (2.5 g acibenzolar-S-methyl/100 kg seed, 30 days after inoculation) | Observed Rf (nematode reproduction factor) (5.0 g acibenzolar-S-methyl/100 kg seed, 30 days after inoculation) | Observed Rf (nematode reproduction factor) (10.0 g acibenzolar-S-methyl/100 kg seed, 30 days after inoculation) | Observed Rf (nematode reproduction factor) (0.15 mg abamectin/seed, 30 days after inoculation with 6,000 eggs)
1 | CSC(=O)c1cccc2nnsc12 [(B-1), acibenzolar-S-methyl] | 4.1 | 2.7 | 3.9 | 
2 | abamectin [(A-a)] |  |  |  | 2.5
